The test system of one experiment is hedgehog signaling. The experiment is described as follows: Motor neuron differentiation and embryonic body formation from embryonic stem cells. It is filed as cell-based. The text has this: To test stem cell functions, motor neuron differentiation experiments were used. First embryonic stem cells were used to form stem cell sphere (embryonic bodies, EB). In the presence of retinoic acid (RA) and sonic hedgehog or SMO agonist purmorphamine (AG), several types of neurons can be differentiated. These neurons can be distinguished by distinct markers. Hb9 is regarded as a marker for motor neuron (FIG. 6A).

Experiment [1] relates to pancreatic cancer cell line ASPC-1. Briefly: Orthotopic mouse model for pancreatic cancer metastasis. It is filed as in vivo. The conditions noted are these: ASPC-1-GFP injected into pancreas of nude mice; 20 mice per group; saline control 60%. As for the experimental part: An orthotopic mouse model for pancreatic cancer metastasis was established to test the effect of Cyc-T on pancreatic cancer. Green flourescent protein (GFP) was expressed in pancreatic cancer cell line ASPC-1, and then injected into pancreas of nude mice.
The effect of cyc-T was tested in the mouse model for pancreatic cancer metastasis described supra.

Experiment [2] concerns basal cell carcinomas (BCC). Briefly: Skin tumor shrinkage in mouse BCC models, topical application. The experiment is classed as in vivo. The conditions noted are these: topical application for 21 days; K14 Ptch1 knockout and K14 SmoM2-YFP mice. As for the experimental part: Quantitative analysis was performed to calculate the percentage of tumor area in a given tissue area. Eight areas were used to measure the average value from each group, which was compared for the efficacy of the drugs.

Counter-ions that a name gives are not always drawn.

In the case of `CC1=C2CC3C(CC=C4CC(O)CCC43C)C2CCC12OC1CC(C)CNC1C2C` (stereo not shown) [Cyclopamine tartrate], in the experiment on hedgehog signaling (embryonic bodies with retinoic acid and sonic hedgehog or purmorphamine, compared with KAAD-cyclopamine), the “inhibition of hedgehog signaling / motor neuron differentiation (Hb9 marker)” value is on record as “as effective as KAAD-cyclopamine”. The “number and size of embryonic bodies (EBs)” value in the experiment on hedgehog signaling (embryonic stem cell spheres, DAPI fluorescent microscopy) is “reduces the number and the size of EBs”. For the same molecule, the “frequency of tumor metastasis” value in experiment [1] is on record as 32%. The “efficacy on hedgehog signaling-mediated skin tumors (percentage of tumor area in tissue area)” value in experiment [2] was “very effective inhibitor for hedgehog signaling-mediated tumors”.

The values are drawn from patent publication US8658664B2 (The Board of Regents of the University of Texas System, priority 2008, dated 2014).
